Assays:
Experiment in all cases: Post-emergence herbicidal effect, greenhouse pot test
Assay type in all cases: in vivo
Conditions in all cases: 0.32 kg of active substance per hectare, rated visually after about 3 weeks
[1] = test system: Abutilon theophrasti
Procedure: (§1) Seeds of monocotyledonous and dicotyledonous weed and crop plants are placed in sandy loam in wood-fiber pots, covered with soil and cultivated in a greenhouse under good growth conditions. 2 to 3 weeks after sowing, the test plants are treated at the one-leaf stage. The compounds (I) according to the invention, formulated in the form of wettable powders (WP), are then applied by spraying as aqueous suspension or emulsion at a water application rate of 600 I/ha (converted) with the addition of 0.2% of wetting agent to the green parts of the plants. After the test plants have been kept in the greenhouse under optimum growth conditions for about 3 weeks, the activity of the preparations is rated visually in comparison to untreated controls (herbicidal activity in percent (%): 100% activity=the plants have died, 0% activity=like control plants).

[2] = test system: Alopecurus myosuroides
Procedure: as §1

[3] = test system: Avena fatua
Procedure: as §1

[4] = test system: Echinochloa crus galli
Procedure: as §1

Measured: herbicidal activity

COC(=O)Cc1c(C)nn(-c2cncn2C)c1-c1ccc(Cl)cc1 [Compound 5-1107, methyl [5-(4-chlorophenyl)-3-methyl-1-(1-methyl-1H-imidazol-5-yl)-1H-pyrazol-4-yl]acetate]
≥ 80%: all assays above

— US20110257014A1, “1-(Heteroaryl)pyrazol-4-ylacetic acids, processes for their preparation and their use as herbicides and plant growth regulators” (BAYER CROPSCIENCE AG, priority 2009, published 2011)
